Measured values from patent publication US20250146080A1, “METHODS FOR OVERCOMING TAZEMETOSTAT-RESISTANCE IN CANCER PATIENTS” (MEMORIAL SLOAN-KETTERING CANCER CENTER, priority 2022, published 2025).
Where two headings read alike, the source gives them in different places.

Columns and labels:
[1] = test system: EZH2^Y666N expressing G401 rhabdoid tumor cells; experiment: Cell viability (CellTiter-Glo), G401 clones expressing doxycycline-inducible EZH2^Y666N; format: cell-based; conditions: 10 μM drug, 14 days
Procedure: (§1) Drug and media were replaced on Days 4, 7, and 11. CellTiter-Glo assays were performed on Day 14, with luminescence readings taken using an automated fluorescence plate reader (Tecan). CellTiter-Glo reagent was freshly reconstituted on the day of measurement and added in a 1:1 proportion to cell media. […] Cell line doubling time was determined by measuring cell viability every 24 hours over the course of 4 days, and fitting the cell viability to a two-parameter exponential curve. […] After the addition of cells, drugs were added using a pin tool (stainless steel pins with 50 nL slots, V&P Scientific) mounted onto a liquid handling robot (CyBio Well vario, Analytik Jena). For analysis of synergy, we used the synergyFinder package (2). Outliers due to pinning errors were excluded after manual examination.

[2] = target: T1, CHK1 (Homo sapiens, UniProt O14757); experiment: Western blot of CHK1 autophosphorylation at S296; format: cell-based; conditions: SRA737 3 μM, 2 days
T1 construct: endogenous in cells; host or cells: G401 rhabdoid tumor cells
T1 sequence (O14757 1-476): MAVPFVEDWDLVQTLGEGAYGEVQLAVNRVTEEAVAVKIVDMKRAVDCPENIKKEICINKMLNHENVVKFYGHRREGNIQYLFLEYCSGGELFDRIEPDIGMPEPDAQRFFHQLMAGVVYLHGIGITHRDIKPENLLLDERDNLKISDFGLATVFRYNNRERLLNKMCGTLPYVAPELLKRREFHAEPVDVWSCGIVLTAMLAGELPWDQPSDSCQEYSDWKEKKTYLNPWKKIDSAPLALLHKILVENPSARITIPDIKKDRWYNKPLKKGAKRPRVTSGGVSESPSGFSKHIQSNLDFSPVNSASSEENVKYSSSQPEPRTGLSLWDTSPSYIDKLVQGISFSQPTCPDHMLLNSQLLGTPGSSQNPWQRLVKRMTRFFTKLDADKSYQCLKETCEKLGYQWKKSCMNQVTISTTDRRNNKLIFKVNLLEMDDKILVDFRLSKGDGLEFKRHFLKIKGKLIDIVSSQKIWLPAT
Procedure: To assess protein expression by Western immunoblotting, pellets of 1 million cells were prepared and washed once in cold PBS. Cells were resuspended in 100-130 μL of RIPA lysis buffer (50 mM Tris-HCl, pH 8.0, 150 mM NaCl, 1.0% NP-40, 0.5% sodium deoxycholate, 0.1% sodium dodecyl sulfate) and incubated on ice for 10 minutes. Cell suspensions were then disrupted using a Covaris S220 adaptive focused sonicator for 5 minutes (peak incident power: 35W, duty factor: 10%, 200 cycles/burst) at 4° C. Lysates were cleared by centrifugation at 18,000 g for 15 min at 4° C. Protein concentration was assayed using the DC Protein Assay (Bio-Rad) and 15-35 μg whole cell extract was used per sample. Samples were boiled at 95° C. in Laemmli buffer (Bio-Rad) with 40 mM DTT and resolved using sodium dodecyl sulfate-polyacrylamide gel electrophoresis. Proteins were transferred to Immobilon FL PVDF membranes (Millipore), and membranes were blocked using Intercept Blocking buffer (Li-Cor). […] Blotted membranes were visualized using goat secondary antibodies conjugated to IRDye 680RD or IRDye 800CW (Li-Cor, 926-68071 and 926-32210) at 1:15,000 and the Odyssey CLx fluorescence scanner, according to manufacturer's instructions (Li-Cor). […]

[3] = test system: G401 cells; conditions: single drug, 7 days; DMSO 0.061
Procedure: Immunofluorescence for γH2AX was performed on cells plated on Millicell EZ Slide glass slides (EMD Millipore), coated for 45 minutes with bovine plasma fibronectin (Millipore Sigma). After drug treatment, cells were washed once with PBS and fixed in 4% formaldehyde for 10 minutes at room temperature. Slides were then washed three times in PBS for 5 minutes, permeabilized for 15 minutes in 0.3% Triton X-100, washed again in PBS three times, and blocked with 5% goat serum (Millipore Sigma, G9023) in PBS for 1 hour at room temperature. Slides were incubated with mouse anti-γH2A.X primary antibody (Sigma-Aldrich, 05-636) at 1:500 in blocking buffer for 1 hour, washed three times in PBS, and incubated with goat anti-mouse secondary antibody conjugated to AlexaFluor555 (Invitrogen, A-21422) at 1:1,000. Cells were then counterstained with DAPI at 1:1,000 for 10 minutes and treated with ProLong Diamond Antifade Mountant with DAPI (Invitrogen, P36962) for 48 hours.
Images were acquired on a Leica SP5 confocal microscope in the upright configuration at 63× magnification. Images were then processed using a custom pipeline in CellProfiler (6). Per-cell integrated γH2A.X intensity was normalized against per-cell integrated DAPI intensity.

[4] = test system: MRT and ES cell lines; experiment: TAZ dose-response curves in a panel of MRT and ES cell lines; format: cell-based; conditions: 13 days, AUC integrated from 40 nM to 50 μM
Procedure: as §1

[5] = test system: RB1^del G401 cells; experiment: Flow cytometry cell cycle analysis (EdU/propidium iodide), G401 RB1^del clones; format: cell-based; conditions: 1 μM TAZ, 11 days
Procedure: (§2) On Day 11, cells were pulsed with EdU for 1 hour. Cells were then harvested and processed for flow cytometry using the manufacturer's protocol (Click-iT, Invitrogen). Briefly, cells were washed with PBS with 1% BSA, permeabilized, and incubated with AlexaFluor647 for 30 minutes. DNA content was measured using propidium iodide (0.05 μg/μL). Cells were analyzed on a CytoFLEX LX (Beckman Coulter).

[6] = test system: RB1^WT G401 cells; experiment: Flow cytometry cell cycle analysis (EdU/propidium iodide), G401 RB1^WT; format: cell-based; conditions: 1 μM TAZ, 11 days
Procedure: as §2

[7] = test system: RB1^del G401 cells; experiment: Cell viability (CellTiter-Glo), G401 RB1^del clones E1 and F2; format: cell-based; conditions: for overcoming TAZ resistance in RB1^del G401 cells: seleciclib, alisertib 9 days, barasertib 6 days; for EC50: Homo sapiens, G-401, 144 h, barasertib for 6 days, read-out: half-maximal effective concentration
Procedure: G401 cells with RB1 mutations were engineered by Synthego. […] Ribonucleprotein containing spCas9 and sgRNA was transfected into G401 cells by electroporation. […] The cells were then single-cell cloned and re-verified by Sanger sequencing.
as §1, with “CellTiter-Glo assays were performed on Day 14, with luminescence readings taken using an automated fluorescence plate reader (Tecan).” left out

[8] = test system: RB1^WT G401 cells; experiment: Cell viability (CellTiter-Glo) dose response, G401 RB1^WT; format: cell-based; conditions: Homo sapiens, G-401, 144 h, barasertib for 6 days, read-out: half-maximal effective concentration
Procedure: as §1

SMILES: Cc1ncccc1-c1cnc(NCc2c(F)ccc3c2CCO3)n2cnnc12 [MAK683]
- cell viability of EZH2^Y666N clones versus wild-type EZH2 [1]: overcomes EZH2^Y666N-mediated resistance

SMILES: N#Cc1cnc(Nc2cc(NC[C@H]3CNCCO3)c(C(F)(F)F)cn2)cn1 [SRA737]
- CHK1 auto-phosphorylation [2]: effective suppression

SMILES: CCN(c1cc(-c2ccc(CN3CCOCC3)cc2)cc(C(=O)NCc2c(C)cc(C)[nH]c2=O)c1C)C1CCOCC1 [TAZ, Tazemetostat]
- nuclear γH2AX fluorescence, median normalized level [3]: 0.12
- area under the curve (AUC) of TAZ dose responses ([4]; resistant ES1, VAESBJ, ES2, EPI544, MP-MRT-AN cell lines): ≤ 0.3
- area under the curve (AUC) of TAZ dose responses ([4]; sensitive G401, KP-MRT-NS, TTC642, A204, TM8716, KP-MRT-RY cell lines): > 0.3
- proportion of cells in G1 phase upon TAZ treatment ([5]; RB1^del E1 clone): 31%
- proportion of cells in G1 phase upon TAZ treatment ([5]; RB1^del F2 clone): 28%
- proportion of cells in G1 phase upon TAZ treatment [6]: 50%

SMILES: COc1cc(Nc2ncc3c(n2)-c2ccc(Cl)cc2C(c2c(F)cccc2OC)=NC3)ccc1C(=O)O [alisertib]
- overcoming TAZ resistance in RB1^del G401 cells [7]: able to overcome TAZ resistance

SMILES: CCN(CCCOc1ccc2c(Nc3cc(CC(=O)Nc4cccc(F)c4)n[nH]3)ncnc2c1)CCOP(=O)(O)O [barasertib]
- EC50 ([7]; G401 RB1^del E1 clone): 5.5 ± 0.6 nM
- EC50 ([7]; G401 RB1^del F2 clone): 5.9 ± 0.9 nM
- EC50 [8]: 6.5 ± 0.5 nM

SMILES: CC[C@H](CO)Nc1nc(NCc2ccccc2)c2ncn(C(C)C)c2n1 [seleciclib]
- overcoming TAZ resistance in RB1^del G401 cells [7]: able to overcome TAZ resistance

SMILES: Cc1cc(C)c(CNC(=O)c2cc(Cl)c3c(c2C)O[C@@](C)([C@H]2CC[C@H](N(C)C)CC2)O3)c(=O)[nH]1 [valemetostat]
- cell viability of EZH2^Y666N clones versus wild-type EZH2 [1]: confers resistance
